Experimental data published in patent publication US20260250412A1, “COMBINATION OF ANTIBODY-DRUG CONJUGATE AND ANTI-PD-1 ANTIBODY, AND USE THEREOF” (GENEQUANTUM HEALTHCARE (SUZHOU) CO., LTD., priority 2023, published 2026).
“And” between values parts separate entries of the source, which are not always exact repeats. Equal values may be shown once.

How the values were obtained:
[1] = test system: Trop2-positive cells BxPC-3 and Trop2-negative cells HepG2; test: Bystander killing in BxPC-3/HepG2 co-culture assay (BxPC-3:HepG2=4:1); format: cell-based, human; conditions: 10 nM, 96 h
Experimental: After the treatment, the cells were moved to the incubator and incubated for 96 h. After the incubation, cells were digested, and washed once with 1×PBS, then transferred to a flow tube, and centrifuged at 2000 rpm for 3 min. The supernatant was then discarded, and the cell amount and cell viability were detected. […] The cells were washed with 1×PBS, the supernatant was discarded after centrifugation, 200 μL of 5 μg/mL human IgG Fe antibody was added, and the resulting cells were continued to incubate at 4° C. for 30 min after mixing. Finally, the cells were washed with 1×PBS, the supernatant was discarded after centrifugation, and the cells were resuspended in PBS, detected by flow cytometry and analyzed by FlowJo software.

[2] = test system: human pancreatic cancer cells BxPC-3; test: Cell proliferation, CellTiter Glo, 96 h, BxPC-3; format: cell-based; conditions: BxPC-3, 96 h
Experimental: A positive control group was set: 100 μL Puromycin at a concentration of 10 μg/mL was added to each well. […] After the administration was completed, the cells were moved to the incubator and incubated for 96 h. The 96-well plate was removed from the 37° C. cell incubator and equilibrated to room temperature for 30 minutes. After the medium was discarded, 100 μL of DMEM and 50 μL of CellTiter Glo reagent were added to each well, and the cells were shaken in the dark at 200 rpm for 15 minutes, and the luminescent signal reflecting cell viability was detected by a microplate reader.

[3] = test system: human gastric cancer cells NCI-N87; test: Cell proliferation, CellTiter Glo, 96 h, NCI-N87; format: cell-based; conditions: NCI-N87, 96 h
Experimental: Two thousand human pharyngeal squamous cells carcinoma FaDu with high TROP2 expression were seeded into 96-well plates in 100 μL of culture medium per well, and incubated overnight in a cell incubator at 37° C. and 5% CO2. […] A positive control group was set: 100 μL Puromycin at a concentration of 10 μg/mL was added to each well. A negative control group was set: 100 μL of complete medium of FaDu cells was added to each well. After the administration was completed, the cells were moved to the incubator and incubated for 96 h. The 96-well plate was removed from the 37° C. cell incubator and equilibrated to room temperature for 30 minutes. After the medium was discarded, 100 μL of DMEM and 50 μL of CellTiter Glo reagent were added to each well, and the cells were shaken in the dark at 200 rpm for 15 minutes, and the luminescent signal reflecting cell viability was detected by a microplate reader. The inhibitory effects of the tested drugs on the proliferation of human pharyngeal squamous cell carcinoma FaDu are as shown in FIG. 2 and Table 7.
The human pharyngeal squamous cells carcinoma FaDu in Example 2.1.1 were replaced with human gastric cancer cells NCI-N87 (100 μL per well containing 5000 cells), and the inhibitory effect of ADC-7 was evaluated using the same process.

[4] = test system: Trop2 positive cancer cells BxPC-3; test: Cytotoxicity assay, CellTiter-Glo, 168 h, BxPC-3; format: cell-based, human
Experimental: (§1) In brief, 3000 to 5000 cells were plated in 96-well plates, and cells were able to attach overnight. Cells were treated with indicated drugs with various concentrations for 168 h. Cell viabilities were examined by CellTiter-Glo® Luminescent Cell Viability Assay, and percentage of cell viability was calculated.

[5] = test system: Trop2 positive cancer cells FaDu; test: Cytotoxicity assay, CellTiter-Glo, 168 h, FaDu; format: cell-based, human
Experimental: as §1

[6] = test system: NCI-N87 mouse xenograft tumor; test: In vivo efficacy, NCI-N87 mouse xenograft tumor; design: species or system BALB/c nude mice; conditions: 3 mg/kg; for Tumor volume (mm^3) Day 0: baseline at grouping
[7] = test system: MDA-MB-468 mouse xenograft tumor; test: In vivo efficacy, MDA-MB-468 mouse xenograft tumor; design: species or system BALB/c Nude mice; conditions: 4.5 mg/kg, intravenously
Experimental: The MDA-MB-468 tumor cells (ATCC, HTB-132) were maintained in vitro as a monolayer culture in L-15 medium supplemented with 10% fetal bovine serum and 1% Antibiotic-Antimycotic at 37° C. in an atmosphere of 0% CO2 in air. The cells growing in an exponential growth phase will be harvested and counted for tumor inoculation. For in vivo anti-tumor efficacy study, 10×10^6 MDA-MB-468 human breast cancer cells (Trop2 positive) in 0.2 mL of PBS with Matrigel (1:1) were inoculated subcutaneously in the right flank in BALB/c Nude mice. […] The tumor volume was measured twice weekly with a caliper. T/C and TGI values were calculated using tumor volume.

[8] = test system: MC38-hTROP2 colon carcinoma; test: In vivo efficacy, MC38-hTROP2 colon carcinoma syngeneic CDX model; design: species or system C57BL/6J mice; conditions: Table 22, monotherapy 3 mg/kg
Experimental: Objective: To evaluate the in vivo anti-tumor efficacy of the combination of ADC drug ADC2 with Anti-mPD-1 in mice bearing colon carcinoma Trop2-high CDX model.
I. MC38-hTROP2 cells (Biocytogen) in exponential growth stage were collected and counted for tumor inoculation. 0.5×10^6 cells in 0.1 mL of PBS were used to subcutaneously inject into the right flank of SPF female C57BL/6J mice aged 6-8 weeks.
II. 6 days after inoculation, the tumor diameter was measured with a caliper and the tumor volume was calculated according to the formula V=0.5 a×b^2 (wherein a is the long diameter of the tumor and b is the short diameter of the tumor). When the mean tumor volume was about 100-300 mm^3, the mice were randomized into vehicle group, ADC2 3 mg/kg group, DS1062a 3 mg/kg group, Anti-mPD-1 (Bio X cell, 825822J1) 1 mg/kg group, ADC2+Anti-mPD-1 combination group and DS1062a+Anti-mPD-1 combination group. Each group includes 6 mice. The day of first administration is defined as day 0. Mice in the vehicle group were given the solvent of ADC2 and the solvent of Anti-mPD-1 with the same frequency and administration route. The tumor volume of mice in each group was measured twice a week.

With DS1062a as the substance, how does the “Amount of cells (10^4) BxPC-3” value ([1]; Table 4) read?
The value was 10.88 10^4.

What about the “Amount of cells (10^4) HepG2” value ([1]; Table 4) of the same substance?
Its value is 33.72 10^4.

And the “Cell proportion (%) BxPC-3” value ([1]; Table 4)?
Its value is 24.4%.

And the “Cell proportion (%) HepG2” value ([1]; Table 4)?
The value was 75.6%.

What about the “Number of viable cells (10^4)” value ([1]; Table 4, whole co-culture) of the same substance?
Its value is 44.6 10^4.

What about the “bystander killing effect (in words)” value ([1]; effect example 1.1) of the same substance?
Its value is “had bystander killing effects”.

What about the “inhibition of proliferation (in words)” value [2] of the same substance?
The value was “could inhibit the proliferation of BxPC-3 cells”.

What about the IC50 ([2]; Table 8) of the same substance?
Its IC50 is 0.584 nM.

What about the “inhibition of proliferation (in words)” value [3] of the same substance?
Its value is “could inhibit the proliferation of NCI-N87 cells”.

And the IC50 ([3]; Table 10)?
The IC50 was 1.26 nM.

And the IC50 [4]?
The IC50 was 0.692 nM.

What about the IC50 [5] of the same substance?
The IC50 was 0.17 nM.

And the “Tumor volume (mm^3) Day 32” value ([6]; Table 14, single dose)?
Its value is 658 mm^3 and 658 ± 43 mm^3.

What about the “T/C (%)” value ([6]; Table 14, single dose, Day 32) of the same substance?
The value was 49.98%.

What about the “TGI (%)” value ([6]; Table 14, single dose, Day 32) of the same substance?
The value was 60.23%.

What about the “Tumor volume (mm^3) Day 0” value ([6]; Table 14, single dose) of the same substance?
Its value is 228 ± 20 mm^3.

What about the “Tumor volume (mm^3) Day 28” value ([6]; Table 17) of the same substance?
The value was 255 mm^3 and 255 ± 35 mm^3.

And the “T/C (%)” value ([6]; Table 17, Day 28)?
The value was 40.30%.

What about the “TGI (%)” value ([6]; Table 17, Day 28) of the same substance?
The value was 84.96%.

What about the “Tumor volume (mm^3) Day 0” value ([6]; Table 17) of the same substance?
Its value is 188 ± 11 mm^3.

What about the “Tumor volume (mm^3) Day 42” value ([6]; Table 20) of the same substance?
Its value is 437 mm^3 and 437 ± 89 mm^3.

And the “T/C (%)” value ([6]; Table 20, Day 42)?
The value was 35.67%.

And the “TGI (%)” value ([6]; Table 20, Day 42)?
The value was 76.58%.

And the “Tumor volume (mm^3) Day 0” value ([6]; Table 20)?
The value was 196 ± 14 mm^3.

And the “tumor growth inhibition (in words)” value ([6]; effect example 3.1.2, after 32 days)?
Its value is “able to significantly inhibit tumor growth”.

And the “tumor growth inhibition (in words)” value ([6]; effect example 3.2.2, after 28 days)?
The value was “can significantly inhibit NCI-N87 tumor growth”.

And the “tumor growth inhibition (in words)” value ([6]; effect example 3.3.2, after 42 days)?
Its value is “could significantly inhibit tumor growth”.

What about the “Tumor volume (mm^3) on day 35” value [7] of the same substance?
Its value is 9 ± 9 mm^3.

And the “T/C (%)” value ([7]; day 35)?
The value was 1.35%.

What about the “TGI (%)” value ([7]; day 35) of the same substance?
The value was 136.06%.

And the “TGI (%)” value ([8]; day 28)?
Its value is 12.8%.

And the “Tumor volume (mm^3)” value ([8]; end day (day 28), mean)?
The value was 1415 mm^3.
